Test results as given in patent publication US12280121B2, “Immunoconjugates and methods” (Immunome, Inc., priority 2021, dated 2025).
Structures can show the parent of a compound that is named as a salt.

Key:
[1] = Human hepatocyte clearance (HHEP CL); type: in vitro ADME; set-up: CLint scaled / half-life: dose or concentration left out as unconfirmed; details: both sexes, human, hepatocytes
Description: Suspensions of human hepatocytes (from 10 mixed gender human donors, final concentration 0.5×10^6 cell/mL) in Williams' E medium were incubated for 90 min with a test compound (0.90% acetonitrile and 0.10% DMSO, final concentration […]) and positive controls (7-Ethoxycoumarin, 7-Hydroxycoumarin, 0.90% acetonitrile and 0.10% DMSO, final concentration […]), with constant shaking at about 600 rpm at 37° C. in an incubator at 5% CO2 and 95% humidity. The total volume of incubation was 200 μl. A sample ([…]) was taken out at TO, 15, 30, 60 and 90 min, which was added intermediately to the ice-cold stop solution (acetonitrile with 200 ng/mL of tobutamide and labetalol as internal standard) (125 μl), and vortexed at 500 rpm for 10 min, centrifuged at 3220×g for 20 min at 4° C. Analytical plates are sealed and stored at 4° C. until LCMS analysis. Viability of hepatocytes at pre-incubation was determined to be 84.5%.
(§1) Human liver microsome clearance assay assess metabolism by the cytochrome P450 system (phase I enzymes). These enzymes oxidize substrates by incorporating oxygen atoms into hydrocarbons, thus causing the introduction of hydroxyl groups, or N- O- and S-dealkylation of substrates and forming more polar products easier to be cleared. Human hepatocyte clearance assay measures more broadly the overall cellular metabolism of the test compound (phase I and phase II enzyme pathways). Phase II enzymes catalyze the conjugation reaction of xenobiotic metabolites and charged species, such as glutathione, sulfate, glycine, or glucuronic acid to form even more polar compounds for easier clearance.

[2] = Human liver microsome clearance (HLM CL); type: in vitro ADME; details: human, microsomes
Description: Working solution was prepared by adding 5 μL of compound and control stock solution (10 mM in dimethyl sulfoxide, DMSO) to 495 μL of acetonitrile (ACN) (intermediate solution concentration: 100 μM, 99% CAN and 1% DMSO. The appropriate concentrations of microsome working solutions were prepared in 100 mM potassium phosphate buffer. After reaction plates containing mixtures of compound and microsomes were pre-incubated at 37° C. for 10 min, […] of 2 mM of NADPH and 2 mM of MgCl2 solution was added to start the reaction. The final concentrations of incubation medium were as follows: microsome—0.5 mg protein/mL, test compound/control […], NADPH—1 mM, MgCl2 —1 mM, acetonitrile 0.99%, DMSO 0.01%. Incubations were performed at 37° C. for 60 min. Samples were taken out at TO, T5, T15, T30, T45 and T60, which was added intermediately to the ice-cold stop solution (acetonitrile with 200 ng/mL of tobutamide and labetalol as internal standard) (125 μl), shaken for 10 min, centrifuged at 4000 rpm for 20 min at 4° C. Analytical plates were analyzed by LCMS.
as §1

[3] = system: Jeko-1; experiment: CTG assay (CellTiter-Glo cell viability), Jeko-1, payload compounds; type: cell-based; details: Homo sapiens, JeKo-1; 72 h, CellTiter-Glo; read-out: JeKo-1 IC50
Source text: (§2) The CTG assay is a method of determining the number of viable cells in culture based on quantitation of the ATP present, an indicator of metabolically active cells. The cell assay requires the addition of a single reagent, Cell Titer Glo, in which cells are lysed and generation of a luminescent signal is produced. The luminescent signal is proportional to the amount of ATP present. The amount of ATP is directly proportional to the number of cells present in culture. For our assay, cells were ensured to be in log-phase for either Jeko-1 or MDA-MB-468. Cells were transferred to 96 wells and treated with compounds in three-fold serial dilution starting from 1 μM to 0.0000508 μM (10 points dilution), for 72 h. Cell viability was analyzed with CellTiter-Glo® Luminescent Cell Viability Assay (Promega) following manufactures' instruction. Percentage of viable cells in each compound concentration was determined by normalizing with the luminescence of vehicle control and plotted into percentage of viability versus dose response curve by nonlinear fit in GraphPad Prism software.

[4] = system: MDA-MB-468; experiment: CTG assay (CellTiter-Glo cell viability), MDA-MB-468, payload compounds; type: cell-based; details: Homo sapiens, MDA-MB-468; 72 h, CellTiter-Glo; read-out: MDA-MB-468 IC50
Source text: as §2

[5] = PAMPA (Parallel Artificial Membrane Permeability Assay); type: physicochemical
Source text: PAMPA is a method which determines the permeability of substances from a donor compartment, through a lipid-infused artificial membrane into an acceptor compartment. See Ottaviani, G.; Martel, S.; Carrupt, P-A. “Parallel Artificial Membrane Permeability Assay: A New Membrane for the Fast Prediction of Passive Human Skin Permeability”, Journal of Medicinal Chemistry, 2006, 49 (13), 3948-3954). A multi-well microtitre plate is used for the donor and a membrane/acceptor compartment is placed on top; the whole assembly is commonly referred to as a “sandwich”. At the beginning of the test, the drug is added to the donor compartment, and the acceptor compartment is drug-free. After an incubation period which may include stirring, the sandwich is separated, and the amount of drug is measured in each compartment. Mass balance allows calculation of drug that remains in the membrane.
The PAMPA was performed by Pion Inc using the GIT-0 lipid and 5 μM donor solution in pH 5.0 and pH 7.4 PRISMA buffer (containing 0.05% DMSO). The higher PAMPA data has been associated with better bystander killing. (Ogitani Y.; Hagihara K.; Oitate, M.; Naito, H.; Agatsuma T. “Bystander killing effect of DS-8201a, a novel anti-human epidermal growth factor receptor 2 antibody-drug conjugate, in tumors with human epidermal growth factor receptor 2 heterogeneity” Cancer Science, 2016, 107 (7), 1039-1046).

SMILES	CLint scaled [1]	half-life [1]	CLint scaled [2]	half-life [2]	IC50 [3]	IC50 [4]	Papp at 5 μM ([5]; pH 5)	Papp at 5 μM ([5]; pH 7.4)	PAMPA Pe (10^−6 cm/s) pH 5.0 ([5]; 5 μM, pH 5)
CC[C@@]1(O)C(=O)OCc2c1cc1n(c2=O)Cc2c-1nc1cc(F)c(C)c3c1c2[C@](C)(NC(=O)CO)CC3 [Compound 10-75, N-((1R,9S)-9-ethyl-5-fluoro-9-hydroxy-1,4-dimethyl-10,13-dioxo-1,2,3,9,10,12,13,15-octahydrobenzo[de]pyrano[3′,4′:6,7]indolizino[1,2-b]quino-lin-1-yl)-2-hydroxyacetamide]	40.8 mL/min/kg	94.4 min	27.2 mL/min/kg	45.9 min	58.1 nM	467 nM	46.8 ×10⁻⁶ cm/s	3.9 ×10⁻⁶ cm/s	–
CC[C@@]1(O)C(=O)OCc2c1cc1n(c2=O)Cc2c-1nc1cc(F)c(C)c3c1c2[C@@H](O)CC3 (single isomer, unassigned) [Compound 3-35]	50.4 mL/min/kg	76.5 min	20.2 mL/min/kg	61.8 min	0.46 nM	4.7 nM	66.1 ×10⁻⁶ cm/s	11.1 ×10⁻⁶ cm/s	–
CC[C@@]1(O)C(=O)OCc2c1cc1n(c2=O)Cc2c-1nc1cc(F)c(C)c3c1c2[C@@](C)(N)CC3 (single isomer, unassigned) [Compound 8-71, hydrochloride]	81.7 mL/min/kg	47 min	41.9 mL/min/kg	30 min	0.44 nM	6.1 nM	67.7 ×10⁻⁶ cm/s	8.6 ×10⁻⁶ cm/s	–
CC[C@@]1(O)C(=O)OCc2c1cc1n(c2=O)Cc2c-1nc1cc(F)c(C)c3c1c2[C@](C)(N)CC3 (single isomer, unassigned) [Compound 8-72, hydrochloride]	79.1 mL/min/kg	49 min	35.9 mL/min/kg	35 min	1.5 nM	7.7 nM	80.8 ×10⁻⁶ cm/s	8.4 ×10⁻⁶ cm/s	–
CC[C@@]1(O)C(=O)OCc2c1cc1n(c2=O)Cc2c-1nc1cc(F)c(C)c3c1c2[C@H](OCCO)CC3 (single isomer, unassigned) [Compound 5-47]	53.7 mL/min/kg	71.7 min	17.3 mL/min/kg	72.2 min	1.5 nM	6.3 nM	–	11.6 ×10⁻⁶ cm/s	76/.1 10^−6 cm/s
CC[C@@]1(O)C(=O)OCc2c1cc1n(c2=O)Cc2c-1nc1cc(F)c(C)c3c1c2[C@H](N)CCC3 (single isomer, unassigned) [Compound 7-60, methanesulfonate]	64.5 mL/min/kg	59.7 min	40.8 mL/min/kg	30.6 min	2.1 nM	14.9 nM	–	–	–
CC[C@@]1(O)C(=O)OCc2c1cc1n(c2=O)Cc2c-1nc1cc(F)c(C)c3c1c2[C@@H](N)CCC3 (single isomer, unassigned) [Compound 7-59, methanesulfonate]	69.4 mL/min/kg	55.5 min	33.7 mL/min/kg	37 min	2.9 nM	14.8 nM	–	–	–
